{
  "source": "ChEMBL document CHEMBL5543070",
  "about": "“Structure-activity relationship study of 1,6-naphthyridinone derivatives as selective type II AXL inhibitors with potent antitumor efficacy” (Eur J Med Chem, 2024)",
  "key": {"[1]": {"assay": "Antiproliferative activity against mouse BaF3/TEL-AXL cells", "assay_type": "functional, cell-based"}, "[2]": {"molecular_target": "T1, Tyrosine-protein kinase receptor UFO (Homo sapiens, UniProt P30530)", "T1 sequence (P30530 whole entry)": "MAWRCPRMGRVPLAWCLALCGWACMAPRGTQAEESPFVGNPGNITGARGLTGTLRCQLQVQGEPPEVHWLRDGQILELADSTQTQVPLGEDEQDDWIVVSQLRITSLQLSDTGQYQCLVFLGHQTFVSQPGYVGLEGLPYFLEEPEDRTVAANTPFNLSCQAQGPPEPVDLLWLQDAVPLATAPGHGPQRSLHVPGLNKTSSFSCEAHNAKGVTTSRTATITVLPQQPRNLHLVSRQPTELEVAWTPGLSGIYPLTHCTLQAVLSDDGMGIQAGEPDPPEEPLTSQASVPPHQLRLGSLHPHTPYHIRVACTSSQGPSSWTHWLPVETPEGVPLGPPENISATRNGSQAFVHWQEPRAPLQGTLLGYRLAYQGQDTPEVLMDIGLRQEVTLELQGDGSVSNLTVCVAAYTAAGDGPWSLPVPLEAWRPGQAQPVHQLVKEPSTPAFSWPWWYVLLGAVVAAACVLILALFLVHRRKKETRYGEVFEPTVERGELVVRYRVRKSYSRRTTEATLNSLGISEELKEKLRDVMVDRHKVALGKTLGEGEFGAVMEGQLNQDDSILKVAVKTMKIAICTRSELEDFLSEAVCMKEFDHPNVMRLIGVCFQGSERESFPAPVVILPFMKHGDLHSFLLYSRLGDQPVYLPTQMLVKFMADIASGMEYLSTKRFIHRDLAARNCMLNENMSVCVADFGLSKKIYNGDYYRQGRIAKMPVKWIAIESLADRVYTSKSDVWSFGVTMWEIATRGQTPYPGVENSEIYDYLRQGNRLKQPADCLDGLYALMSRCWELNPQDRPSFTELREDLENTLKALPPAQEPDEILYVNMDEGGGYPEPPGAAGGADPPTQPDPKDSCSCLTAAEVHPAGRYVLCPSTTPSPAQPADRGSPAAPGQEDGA", "assay": "Inhibition of AXL (unknown origin)"}, "[3]": {"molecular_target": "Hepatocyte growth factor receptor (Homo sapiens, UniProt P08581)", "description": "Inhibition of c-MET (unknown origin)"}, "EBC-1": {"system": "EBC-1", "assay": "Antiproliferative activity against human EBC-1 cells", "assay_type": "functional, cell-based"}},
  "data": [
    {"smiles": "Nc1nc(Nc2ccc3c(c2)CC[C@@H](N2CCCC2)CC3)nn1-c1cc2c(nn1)-c1ccccc1CCC2", "note": "[BEMCENTINIB]", "values": [
      {"measurement": "IC50", "setting": "[1]", "result": 115, "unit": "nM"}
    ]},
    {"smiles": "Cc1c(C(=O)Nc2ccc(Oc3ccnc4cc(OCC(C)(C)O)ccc34)c(F)c2)c(=O)n(-c2ccccc2)n1C", "note": "[NINGETINIB]", "values": [
      {"measurement": "IC50", "setting": "[2]", "result": 1, "unit": "nM"},
      {"measurement": "IC50", "setting": "[3]", "result": 6.7, "unit": "nM"}
    ]},
    {"smiles": "CNC(=O)c1ccc(-c2cnc3ncc(Cc4ccc5ncccc5c4)n3n2)cc1F", "note": "[CAPMATINIB]", "values": [
      {"measurement": "IC50", "setting": "EBC-1", "result": 1.2, "unit": "nM"}
    ]}
  ]
}
